These results are taken from publication PMC11246513, “Exploring bat-inspired cyclic tryptophan diketopiperazines as ABCB1 Inhibitors” (Communications Chemistry, 2024).

For data set [1], the target named is T1, ABCB1 (Homo sapiens, UniProt P08183). The data set can be described thus: rhodamine […] efflux inhibition, flow cytometry, HEK293T ABCB1 cells. It is filed as cell-based. Also noted: human ABCB1 (ABCB1-TEV-His-FLAG) stably expressed in HEK293T.
For data set [2], the target named is T2, bat ABCB1 (Pteropus alecto, UniProt L5JS44).
T2 construct: gene PAL_GLEAN10013639; endogenous ABCB1 in PaKiT03 cells
As to the kind of experiment: rhodamine […] efflux inhibition, flow cytometry, PaKiT03 cells with ABCB1 KO control. The class given is cell-based. On the technique in general: A flow cytometer gives signals particle by particle.

In data set [3] the target is T1, ABCB1. It is filed as biochemical. On the set-up: human ABCB1-FLAG, purified and reconstituted into egg lecithin liposome.
Data set [4] has as its target T2, bat ABCB1. As to the kind of experiment: rhodamine […] efflux inhibition, flow cytometry, PaKiT03 cells. It is filed as cell-based.

T1 sequence (P08183 whole entry): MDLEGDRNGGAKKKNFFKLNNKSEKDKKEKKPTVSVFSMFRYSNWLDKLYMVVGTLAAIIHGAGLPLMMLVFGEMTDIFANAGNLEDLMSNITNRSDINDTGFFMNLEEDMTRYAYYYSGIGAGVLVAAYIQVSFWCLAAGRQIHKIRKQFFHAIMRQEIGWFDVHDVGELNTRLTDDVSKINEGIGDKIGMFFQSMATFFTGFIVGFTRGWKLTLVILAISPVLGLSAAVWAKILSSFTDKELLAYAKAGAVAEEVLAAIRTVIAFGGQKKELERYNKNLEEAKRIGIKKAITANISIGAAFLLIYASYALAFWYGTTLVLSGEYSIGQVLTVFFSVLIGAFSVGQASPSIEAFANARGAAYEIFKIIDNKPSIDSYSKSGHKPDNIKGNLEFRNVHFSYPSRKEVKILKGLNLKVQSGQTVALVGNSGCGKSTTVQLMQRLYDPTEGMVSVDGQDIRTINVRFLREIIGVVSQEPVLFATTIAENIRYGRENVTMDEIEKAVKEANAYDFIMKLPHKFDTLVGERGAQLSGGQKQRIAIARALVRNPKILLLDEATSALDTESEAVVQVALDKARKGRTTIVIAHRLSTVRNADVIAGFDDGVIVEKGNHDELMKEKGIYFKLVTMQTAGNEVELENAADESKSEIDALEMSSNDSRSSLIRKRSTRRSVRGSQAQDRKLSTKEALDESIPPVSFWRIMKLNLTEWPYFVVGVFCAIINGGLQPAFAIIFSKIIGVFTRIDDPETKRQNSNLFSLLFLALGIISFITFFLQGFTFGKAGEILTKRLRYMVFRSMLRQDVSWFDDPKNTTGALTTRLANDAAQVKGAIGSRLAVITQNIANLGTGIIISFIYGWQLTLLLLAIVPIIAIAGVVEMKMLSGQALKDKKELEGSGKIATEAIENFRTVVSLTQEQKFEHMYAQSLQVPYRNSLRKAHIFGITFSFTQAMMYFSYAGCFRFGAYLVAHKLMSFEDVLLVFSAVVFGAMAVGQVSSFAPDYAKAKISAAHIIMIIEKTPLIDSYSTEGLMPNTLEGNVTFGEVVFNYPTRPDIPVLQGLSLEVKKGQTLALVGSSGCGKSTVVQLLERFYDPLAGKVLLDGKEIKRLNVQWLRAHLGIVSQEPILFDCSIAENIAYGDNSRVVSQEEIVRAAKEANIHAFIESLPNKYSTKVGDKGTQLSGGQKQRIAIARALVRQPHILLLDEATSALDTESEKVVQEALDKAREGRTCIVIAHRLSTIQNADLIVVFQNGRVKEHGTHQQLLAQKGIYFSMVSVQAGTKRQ
T2 sequence (L5JS44 1-1308): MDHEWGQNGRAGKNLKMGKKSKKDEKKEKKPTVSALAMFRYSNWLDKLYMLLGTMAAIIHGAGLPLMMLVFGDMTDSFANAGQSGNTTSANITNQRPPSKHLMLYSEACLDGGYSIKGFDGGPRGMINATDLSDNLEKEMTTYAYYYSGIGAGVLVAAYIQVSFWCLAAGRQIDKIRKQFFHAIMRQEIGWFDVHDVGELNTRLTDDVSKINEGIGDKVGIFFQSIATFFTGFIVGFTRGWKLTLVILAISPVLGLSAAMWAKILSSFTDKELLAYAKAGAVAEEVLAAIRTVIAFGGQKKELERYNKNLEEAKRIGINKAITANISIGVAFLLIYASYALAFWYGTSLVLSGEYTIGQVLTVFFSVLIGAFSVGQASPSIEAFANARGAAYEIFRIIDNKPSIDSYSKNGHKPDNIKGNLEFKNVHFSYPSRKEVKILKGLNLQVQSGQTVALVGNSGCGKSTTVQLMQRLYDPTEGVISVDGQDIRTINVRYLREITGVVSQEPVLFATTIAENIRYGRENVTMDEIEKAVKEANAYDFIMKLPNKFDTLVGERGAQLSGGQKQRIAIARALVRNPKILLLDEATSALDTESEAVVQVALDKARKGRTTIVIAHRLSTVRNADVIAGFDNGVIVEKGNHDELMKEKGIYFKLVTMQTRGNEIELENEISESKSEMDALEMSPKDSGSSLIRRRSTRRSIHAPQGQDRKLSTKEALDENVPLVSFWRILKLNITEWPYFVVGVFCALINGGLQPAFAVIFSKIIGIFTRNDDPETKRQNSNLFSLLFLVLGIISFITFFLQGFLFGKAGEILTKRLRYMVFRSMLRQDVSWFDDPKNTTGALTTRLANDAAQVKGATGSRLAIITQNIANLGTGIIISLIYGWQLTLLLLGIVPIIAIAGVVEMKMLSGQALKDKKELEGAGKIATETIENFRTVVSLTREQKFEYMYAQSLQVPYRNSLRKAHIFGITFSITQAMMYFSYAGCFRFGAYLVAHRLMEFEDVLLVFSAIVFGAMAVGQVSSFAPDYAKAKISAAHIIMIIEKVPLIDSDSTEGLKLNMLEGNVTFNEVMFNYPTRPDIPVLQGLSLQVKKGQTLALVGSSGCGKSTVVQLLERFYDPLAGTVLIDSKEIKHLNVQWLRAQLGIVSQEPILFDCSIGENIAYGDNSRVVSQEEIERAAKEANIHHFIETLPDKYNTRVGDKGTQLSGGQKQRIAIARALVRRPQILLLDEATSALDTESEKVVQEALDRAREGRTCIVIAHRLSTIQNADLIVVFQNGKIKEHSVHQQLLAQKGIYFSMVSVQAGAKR

In general, IC50 refers to the concentration needed to halve the response being measured. High values mean a need for much substance, low ones inhibition by little substance. `O=C1N[C@@H](Cc2c[nH]c3ccccc23)C(=O)N2[C@H]1C[C@@]1(Cc3ccccc3)c3ccccc3N(Cc3ccccc3)[C@@H]21` [C3N-Dbn-Trp2]: the IC50 is 5900 nM on ABCB1 [1] and 900 nM against bat ABCB1 [2]. With `Cn1cc(C[C@@H]2NC(=O)[C@H](Cc3cn(C)c4ccccc34)NC2=O)c2ccccc21` [Cyclo-(L-1-methyl-Trp-L-1-methyl-Trp)], the “ATPase stimulation of purified reconstituted ABCB1 (ADP by HPLC); supported by d” value on ABCB1 [3] is reported as “Cyclo-(L-1-methyl-Trp-L-1-methyl-Trp) consumed larger amounts of ATP than Cyclo-(L-Trp-L-Trp) in the in vitro ATPase assay”. Still for that read-out and setting: the value for `O=C1N[C@@H](Cc2c[nH]c3ccccc23)C(=O)N[C@H]1Cc1c[nH]c2ccccc12` [Cyclo-(L-Trp-L-Trp)] was ~ 2 mM. On to `COc1cc2c(cc1OC)CN(CCc1ccc(NC(=O)c3cc(OC)c(OC)cc3NC(=O)c3cnc4ccccc4c3)cc1)CC2` [tariquidar], for which the values for the IC50 at ABCB1 [1] and against bat ABCB1 [4] were 16 nM and 2 nM, respectively.
